Entries after “also recorded” stand apart in the source; their conditions may differ.
Columns and labels:
[1] = system: rat embryonic cortical neurons; assay: Dendritogenesis (Sholl analysis) in cultured cortical neurons; assay type: cell-based
Method: Embryonic rat cortical neurons were treated for a short period of time (1 h) followed by a suitable growth period (71 h) to measure the psychoplastogenic effects of the compounds described herein. […] Therefore, the effects of ibogalogs 8-17 on dendritic growth was assessed.
Dendritogenesis Experiments. For the dendritogenesis experiments conducted using cultured cortical neurons, timed pregnant Sprague Dawley rats were obtained from Charles River Laboratories (Wilmington, MA). Full culturing, staining, and analysis details were performed as previously described. (Dunlap, L. et al., 2019)

zebrafish = assay: Zebrafish developmental toxicity assay; assay type: in vivo

COc1ccc2c3c([nH]c2c1)CCN(C)CC3 [TBG]
dendritic arbor complexity (Sholl analysis, Nmax) ([1]; DIV6): increased dendritic arbor complexity | effect on dendritic growth after pretreatment with ketanserin (5-HT2A antagonist) ([1]; ketanserin pretreatment): blocked by the 5-HT2A antagonist ketanserin; also recorded: completely abrogated its effects | proportion of viable to non-viable fish (zebrafish; 66 μM, 5 dpf): statistically indistinguishable from vehicle control; also recorded: does not cause developmental toxicity | malformations, mortality, non-viable fish (zebrafish; 100 μM, 2 and 5 dpf): significantly fewer non-viable fish than ibogaine or noribogaine treatments

Reference: patent publication US12325710B2, “Substituted 1,2,3,4,5,6-hexahydroazepino[4,5-b]indoles for treating brain disorders” (priority 2019, dated 2025)
